In patent US20260144257A1, “VITAMIN B3 BASED PRESERVATIVE COMPOSITIONS” (SHARON PERSONAL CARE LTD., priority 2022, published 2026):

Tested on: tested bacteria and fungi (E. coli, S. aureus, P. aeruginosa, C. albicans, A. brasiliensis)
Experiment: Challenge test of preservative efficacy in formulations (ISO 11930)
Type: cell-based
Description: Escherichia coli (ATCC 8739), Staphylococcus aureus (ATCC 6538), P. aeruginosa (ATCC 9027), Candida albicans (ATCC 10231), and Aspergillus brasiliensis (ATCC 16404) were obtained from ATCC and cultured according to the manufacturer's instructions. These microorganisms are routinely used for minimum inhibitory concentration (MIC), checkerboards and challenge tests according to the US and EU recommendations for the efficacy of preservatives in the cosmetic industry. Bacterial strains were maintained in tryptic soy agar (TSA) (Hy-labs, Rehovot, Israel), while yeast and mold strains were maintained in sabouraud dextrose agar (SDA) (Hy-labs, Israel), supplemented with oxytetracycline at a concentration of 1% (Hy-labs, Israel). Preservative efficacy assays (challenge tests) were performed in order to enumerate the number of microorganisms present in a formulation containing the preservative system, while the diluent solution was supplemented with neutralizers containing 4% Tween 20 and 0.5% lecithin (Hy-labs, Israel). Challenge tests of preservative efficacy in formulations were performed according to the ISO 11930 regulations. The total count for any prior contamination was performed for all formulations. Specifically, in order to evaluate the antimicrobial and antifungal activity of the preservative system, samples were inoculated separately with each microorganism at a final concentration of 10^6 cfu/mL for bacteria and 10^5 cfu/mL for yeast and mold. Samples were incubated in the dark at 22° C. for 28 days. […] To enumerate the microorganisms at each time point, serial dilutions were made up to 10-4, and 1 mL were seeded in duplicates onto a petri dish with the appropriate media TSA/SDA (bacteria vs. yeast and mold, respectively), using the pour plate method. Plates were incubated at 32° C. for three days for bacteria while yeast and mold were incubated at 22° C. for five days until the enumeration of viable microorganisms. [table]

CCCCCCC(O)CO (stereo not drawn) [CG, Caprylyl Glycol]
preservative activity (sole application (without niacinamide)): didn't show any markable preservative activity

NC(=O)c1cccnc1 [niacinamide]
antimicrobial activity of the single agent (alone at the above concentrations (about 2.8% niacinamide or about 0.2% cationic surfactant)): only limited antimicrobial activity

polylysine
preservative activity (standalone treatment, 0.1%, non-ionic cream): didn't show any markable preservative activity
